Measured values from BindingDB's records for doi:10.1021/jm5002919 (Takeda Pharmaceutical, 2014).

Molecular target: G-protein coupled receptor 52 (Homo sapiens, UniProt Q9Y2T5)
Assay: Agonist activity at human GPR52 expressed in CHO cells assessed as cAMP production after 30 mins by Alphascreen assay

Sequence of G-protein coupled receptor 52 (Q9Y2T5 whole entry): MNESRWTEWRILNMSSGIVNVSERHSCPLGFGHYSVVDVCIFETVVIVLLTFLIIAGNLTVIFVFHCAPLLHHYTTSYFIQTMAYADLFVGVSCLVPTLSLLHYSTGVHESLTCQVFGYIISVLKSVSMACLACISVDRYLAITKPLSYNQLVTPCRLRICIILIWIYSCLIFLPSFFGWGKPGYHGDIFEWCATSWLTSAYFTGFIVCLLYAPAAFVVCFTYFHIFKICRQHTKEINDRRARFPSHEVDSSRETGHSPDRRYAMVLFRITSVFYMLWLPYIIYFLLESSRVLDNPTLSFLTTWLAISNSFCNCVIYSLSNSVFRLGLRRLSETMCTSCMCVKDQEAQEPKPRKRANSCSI

For `COc1ccc(-c2ccnc(NCCc3ccc(OC)c(OC)c3C)n2)cc1`, the EC50 was > 10 µM.
